Reference: the NIST ThermoML archive (doi:10.1021/je900916e)

Test: cn = amount concentration of the nth substance listed, in mol/dm3
Details: 101 kPa, Liquid, Advanced Conductivity Orion 162A

CC[N+](CC)(CC)CC.O=C([O-])C(F)(F)C(F)(F)C(F)(F)C(F)(F)C(F)(F)C(F)(F)C(F)(F)F [tetraethylammonium perfluorooctanoate] + O
Details	electrical conductivity [S/m]
288.15 K, c1 = 0.000744	0.00332
288.15 K, c1 = 0.001478	0.00651
288.15 K, c1 = 0.0022	0.0094
288.15 K, c1 = 0.002913	0.0122
288.15 K, c1 = 0.003614	0.015
288.15 K, c1 = 0.004306	0.0176
288.15 K, c1 = 0.005101	0.0205
288.15 K, c1 = 0.005882	0.0233
288.15 K, c1 = 0.006651	0.0258
288.15 K, c1 = 0.007407	0.0275
288.15 K, c1 = 0.008152	0.0283
288.15 K, c1 = 0.009091	0.0292
288.15 K, c1 = 0.01011	0.0301
288.15 K, c1 = 0.01131	0.0311
288.15 K, c1 = 0.01266	0.0322
288.15 K, c1 = 0.01398	0.0332
288.15 K, c1 = 0.01543	0.0343
293.15 K, c1 = 0.000662	0.00339
293.15 K, c1 = 0.001316	0.00649
293.15 K, c1 = 0.001961	0.00944
293.15 K, c1 = 0.002597	0.0123
293.15 K, c1 = 0.003226	0.0149
293.15 K, c1 = 0.003846	0.0176
293.15 K, c1 = 0.004458	0.0201
293.15 K, c1 = 0.005063	0.0226
293.15 K, c1 = 0.00566	0.0249
293.15 K, c1 = 0.00625	0.027
293.15 K, c1 = 0.006832	0.029
293.15 K, c1 = 0.007407	0.0301
293.15 K, c1 = 0.007975	0.0309
293.15 K, c1 = 0.008536	0.0316
293.15 K, c1 = 0.00942	0.0325
293.15 K, c1 = 0.01029	0.0334
293.15 K, c1 = 0.01114	0.0342
293.15 K, c1 = 0.01218	0.0351
293.15 K, c1 = 0.01319	0.036
293.15 K, c1 = 0.01419	0.0369
293.15 K, c1 = 0.01516	0.0378
298.15 K, c1 = 0.000662	0.00389
298.15 K, c1 = 0.001316	0.00743
298.15 K, c1 = 0.001961	0.0108
298.15 K, c1 = 0.002597	0.0141
298.15 K, c1 = 0.003226	0.0172
298.15 K, c1 = 0.003846	0.0202
298.15 K, c1 = 0.004458	0.0231
298.15 K, c1 = 0.005063	0.0259
298.15 K, c1 = 0.00566	0.0286
298.15 K, c1 = 0.00625	0.0313
298.15 K, c1 = 0.006832	0.0329
298.15 K, c1 = 0.007407	0.0339
298.15 K, c1 = 0.007975	0.0348
298.15 K, c1 = 0.008536	0.0356
298.15 K, c1 = 0.00942	0.0366
298.15 K, c1 = 0.01029	0.0376
298.15 K, c1 = 0.01114	0.0386
298.15 K, c1 = 0.01218	0.0397
298.15 K, c1 = 0.01319	0.0409
298.15 K, c1 = 0.01419	0.042
298.15 K, c1 = 0.01516	0.0431
303.15 K, c1 = 0.000662	0.00431
303.15 K, c1 = 0.001316	0.00815
303.15 K, c1 = 0.001961	0.0119
303.15 K, c1 = 0.002597	0.0154
303.15 K, c1 = 0.003226	0.0189
303.15 K, c1 = 0.003846	0.0222
303.15 K, c1 = 0.004458	0.0254
303.15 K, c1 = 0.005063	0.0285
303.15 K, c1 = 0.00566	0.0314
303.15 K, c1 = 0.00625	0.0344
303.15 K, c1 = 0.006832	0.0365
303.15 K, c1 = 0.007407	0.038
303.15 K, c1 = 0.007975	0.0389
303.15 K, c1 = 0.008536	0.0398
303.15 K, c1 = 0.00942	0.0409
303.15 K, c1 = 0.01029	0.042
303.15 K, c1 = 0.01114	0.0431
303.15 K, c1 = 0.01218	0.0444
303.15 K, c1 = 0.01319	0.0457
303.15 K, c1 = 0.01419	0.047
303.15 K, c1 = 0.01516	0.0483
308.15 K, c1 = 0.000744	0.00544
308.15 K, c1 = 0.001478	0.0102
308.15 K, c1 = 0.0022	0.0148
308.15 K, c1 = 0.002913	0.0193
308.15 K, c1 = 0.003614	0.0234
308.15 K, c1 = 0.004306	0.0275
308.15 K, c1 = 0.004988	0.0316
308.15 K, c1 = 0.00566	0.0354
308.15 K, c1 = 0.006323	0.0391
308.15 K, c1 = 0.006977	0.0419
308.15 K, c1 = 0.007621	0.0433
308.15 K, c1 = 0.008467	0.0448
308.15 K, c1 = 0.009297	0.0462
308.15 K, c1 = 0.01011	0.0475
308.15 K, c1 = 0.01111	0.049
308.15 K, c1 = 0.01228	0.0508
308.15 K, c1 = 0.01361	0.0527
308.15 K, c1 = 0.01489	0.0545
308.15 K, c1 = 0.01632	0.0565
313.15 K, c1 = 0.000662	0.00523
313.15 K, c1 = 0.001316	0.0101
313.15 K, c1 = 0.001961	0.0146
313.15 K, c1 = 0.002597	0.0189
313.15 K, c1 = 0.003226	0.0231
313.15 K, c1 = 0.003846	0.0272
313.15 K, c1 = 0.004458	0.0312
313.15 K, c1 = 0.005063	0.0351
313.15 K, c1 = 0.00566	0.0388
313.15 K, c1 = 0.00625	0.0422
313.15 K, c1 = 0.006832	0.0455
313.15 K, c1 = 0.007407	0.047
313.15 K, c1 = 0.007975	0.0482
313.15 K, c1 = 0.008536	0.0493
313.15 K, c1 = 0.00942	0.0508
313.15 K, c1 = 0.01029	0.0523
313.15 K, c1 = 0.01114	0.0537
313.15 K, c1 = 0.01218	0.0554
313.15 K, c1 = 0.01319	0.0571
313.15 K, c1 = 0.01419	0.0587
313.15 K, c1 = 0.01516	0.0603
318.15 K, c1 = 0.000744	0.00628
318.15 K, c1 = 0.001478	0.0121
318.15 K, c1 = 0.0022	0.0177
318.15 K, c1 = 0.002913	0.023
318.15 K, c1 = 0.003614	0.028
318.15 K, c1 = 0.004306	0.033
318.15 K, c1 = 0.004988	0.0379
318.15 K, c1 = 0.00566	0.0424
318.15 K, c1 = 0.006323	0.0468
318.15 K, c1 = 0.006977	0.0504
318.15 K, c1 = 0.007621	0.0534
318.15 K, c1 = 0.008257	0.0548
318.15 K, c1 = 0.009091	0.0566
318.15 K, c1 = 0.00991	0.0583
318.15 K, c1 = 0.01091	0.0602
318.15 K, c1 = 0.01209	0.0624
318.15 K, c1 = 0.01342	0.0646
318.15 K, c1 = 0.01471	0.0667
318.15 K, c1 = 0.01614	0.0692
